Assays:
Type in all cases: binding
[1] = molecular target: T1, ADAAD (Active DNA-dependent ATPase A domain) (Bos taurus, UniProt Q9TTA5, R812A); assay: intrinsic tryptophan fluorescence titration (ex […] nm, em […] nm), one-site fit
T1 construct: gene SMARCAL1; ATPase domain fragment of bovine SMARCAL1 (RecA-like domains 1 and 2), plasmid pCP101 (pET-14b, NdeI/XhoI), E. coli BL21(DE3), Ni-NTA then DEAE-sepharose; tag removal not mentioned

[2] = molecular target: T2, ADAAD (Active DNA-dependent ATPase A domain) (Bos taurus, UniProt Q9TTA5, F727W); assay: as above
T2 construct: gene SMARCAL1; ATPase domain fragment of bovine SMARCAL1 (RecA-like domains 1 and 2), plasmid pCP101 (pET-14b, NdeI/XhoI), E. coli BL21(DE3), Ni-NTA then DEAE-sepharose; tag removal not mentioned

[3] = molecular target: T3, ADAAD (Active DNA-dependent ATPase A domain) (Bos taurus, UniProt Q9TTA5, R815H); assay: as above
T3 construct: gene SMARCAL1; ATPase domain fragment of bovine SMARCAL1 (RecA-like domains 1 and 2), plasmid pCP101 (pET-14b, NdeI/XhoI), E. coli BL21(DE3), Ni-NTA then DEAE-sepharose; tag removal not mentioned

[4] = molecular target: T4, ADAAD (Active DNA-dependent ATPase A domain) (Bos taurus, UniProt Q9TTA5, D811H); assay: as above
T4 construct: gene SMARCAL1; ATPase domain fragment of bovine SMARCAL1 (RecA-like domains 1 and 2), plasmid pCP101 (pET-14b, NdeI/XhoI), E. coli BL21(DE3), Ni-NTA then DEAE-sepharose; tag removal not mentioned

[5] = molecular target: T5, ADAAD (Active DNA-dependent ATPase A domain) (Bos taurus, UniProt Q9TTA5, H814A); assay: as above
T5 construct: gene SMARCAL1; ATPase domain fragment of bovine SMARCAL1 (RecA-like domains 1 and 2), plasmid pCP101 (pET-14b, NdeI/XhoI), E. coli BL21(DE3), Ni-NTA then DEAE-sepharose; tag removal not mentioned

[6] = molecular target: T6, ADAAD (Active DNA-dependent ATPase A domain) (Bos taurus, UniProt Q9TTA5, D811H/H549D); assay: as above
T6 construct: gene SMARCAL1; ATPase domain fragment of bovine SMARCAL1 (RecA-like domains 1 and 2), plasmid pCP101 (pET-14b, NdeI/XhoI), E. coli BL21(DE3), Ni-NTA then DEAE-sepharose; tag removal not mentioned

[7] = molecular target: T7, ADAAD (Active DNA-dependent ATPase A domain) (Bos taurus, UniProt Q9TTA5, S778A); assay: as above
T7 construct: gene SMARCAL1; ATPase domain fragment of bovine SMARCAL1 (RecA-like domains 1 and 2), plasmid pCP101 (pET-14b, NdeI/XhoI), E. coli BL21(DE3), Ni-NTA then DEAE-sepharose; tag removal not mentioned

[8] = molecular target: T8, ADAAD (Active DNA-dependent ATPase A domain) (Bos taurus, UniProt Q9TTA5, R815K); assay: as above
T8 construct: gene SMARCAL1; ATPase domain fragment of bovine SMARCAL1 (RecA-like domains 1 and 2), plasmid pCP101 (pET-14b, NdeI/XhoI), E. coli BL21(DE3), Ni-NTA then DEAE-sepharose; tag removal not mentioned

[9] = molecular target: T9, ADAAD (Active DNA-dependent ATPase A domain) (Bos taurus, UniProt Q9TTA5, F727A); assay: as above
T9 construct: gene SMARCAL1; ATPase domain fragment of bovine SMARCAL1 (RecA-like domains 1 and 2), plasmid pCP101 (pET-14b, NdeI/XhoI), E. coli BL21(DE3), Ni-NTA then DEAE-sepharose; tag removal not mentioned

[10] = molecular target: T10, ADAAD (Active DNA-dependent ATPase A domain) (Bos taurus, UniProt Q9TTA5, R815A); assay: as above
T10 construct: gene SMARCAL1; ATPase domain fragment of bovine SMARCAL1 (RecA-like domains 1 and 2), plasmid pCP101 (pET-14b, NdeI/XhoI), E. coli BL21(DE3), Ni-NTA then DEAE-sepharose; tag removal not mentioned

[11] = molecular target: T11, ADAAD (Active DNA-dependent ATPase A domain) (Bos taurus, UniProt Q9TTA5); assay: intrinsic tryptophan fluorescence titration (ex […] nm, em […] nm); conditions: representative spectra only
T11 construct: gene SMARCAL1; ATPase domain fragment of bovine SMARCAL1 (RecA-like domains 1 and 2), plasmid pCP101 (pET-14b, NdeI/XhoI), E. coli BL21(DE3), Ni-NTA then DEAE-sepharose; tag removal not mentioned

[12] = molecular target: T12, ADAAD (Active DNA-dependent ATPase A domain) (Bos taurus, UniProt Q9TTA5, T780A); assay: intrinsic tryptophan fluorescence titration (ex […] nm, em […] nm), one-site fit
T12 construct: gene SMARCAL1; ATPase domain fragment of bovine SMARCAL1 (RecA-like domains 1 and 2), plasmid pCP101 (pET-14b, NdeI/XhoI), E. coli BL21(DE3), Ni-NTA then DEAE-sepharose; tag removal not mentioned

[13] = molecular target: T13, ADAAD (Active DNA-dependent ATPase A domain) (Bos taurus, UniProt Q9TTA5, F727A/R812A); assay: as above
T13 construct: gene SMARCAL1; ATPase domain fragment of bovine SMARCAL1 (RecA-like domains 1 and 2), plasmid pCP101 (pET-14b, NdeI/XhoI), E. coli BL21(DE3), Ni-NTA then DEAE-sepharose; tag removal not mentioned
T13 sequence (Q9TTA5 221-940 F727A/R812A limits assumed): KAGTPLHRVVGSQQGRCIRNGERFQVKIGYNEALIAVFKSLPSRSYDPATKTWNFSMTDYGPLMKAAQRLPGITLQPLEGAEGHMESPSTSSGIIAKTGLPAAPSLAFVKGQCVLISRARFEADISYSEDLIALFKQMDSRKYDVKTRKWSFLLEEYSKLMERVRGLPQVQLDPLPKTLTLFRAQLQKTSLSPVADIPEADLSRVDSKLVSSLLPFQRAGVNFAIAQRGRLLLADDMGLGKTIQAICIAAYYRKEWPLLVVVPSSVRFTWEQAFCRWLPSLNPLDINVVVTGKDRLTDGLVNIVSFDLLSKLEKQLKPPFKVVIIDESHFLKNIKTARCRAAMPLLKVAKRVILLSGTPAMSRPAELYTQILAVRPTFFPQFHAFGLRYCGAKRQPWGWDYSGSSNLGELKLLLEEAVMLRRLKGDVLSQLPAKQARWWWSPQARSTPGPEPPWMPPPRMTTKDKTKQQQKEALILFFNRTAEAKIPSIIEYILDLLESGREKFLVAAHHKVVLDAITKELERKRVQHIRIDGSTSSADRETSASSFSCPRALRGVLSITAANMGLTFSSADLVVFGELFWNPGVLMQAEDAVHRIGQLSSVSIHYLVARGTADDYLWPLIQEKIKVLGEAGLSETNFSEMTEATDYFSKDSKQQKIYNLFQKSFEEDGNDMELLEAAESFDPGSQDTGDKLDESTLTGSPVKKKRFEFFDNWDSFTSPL

T2 sequence (Q9TTA5 221-940 F727W limits assumed): as the sequence (Q9TTA5 221-940 F727A/R812A limits assumed) above, with A507W, A592R counted along it
T7 sequence (Q9TTA5 221-940 S778A limits assumed): as the sequence (Q9TTA5 221-940 F727A/R812A limits assumed) above, with A507F, S558A, A592R counted along it
T11 sequence (Q9TTA5 221-940 limits assumed): as the sequence (Q9TTA5 221-940 F727A/R812A limits assumed) above, with A507F, A592R counted along it
T10 sequence (Q9TTA5 221-940 R815A limits assumed): as the sequence (Q9TTA5 221-940 F727A/R812A limits assumed) above, with A507F, A592R, R595A counted along it
T1 sequence (Q9TTA5 221-940 R812A limits assumed): as the sequence (Q9TTA5 221-940 F727A/R812A limits assumed) above, with A507F counted along it
T5 sequence (Q9TTA5 221-940 H814A limits assumed): as the sequence (Q9TTA5 221-940 F727A/R812A limits assumed) above, with A507F, A592R, H594A counted along it
T6 sequence (Q9TTA5 221-940 H549D/D811H limits assumed): as the sequence (Q9TTA5 221-940 F727A/R812A limits assumed) above, with H329D, A507F, D591H, A592R counted along it
T12 sequence (Q9TTA5 221-940 T780A limits assumed): as the sequence (Q9TTA5 221-940 F727A/R812A limits assumed) above, with A507F, T560A, A592R counted along it
T9 sequence (Q9TTA5 221-940 F727A limits assumed): as the sequence (Q9TTA5 221-940 F727A/R812A limits assumed) above, with A592R counted along it
T8 sequence (Q9TTA5 221-940 R815K limits assumed): as the sequence (Q9TTA5 221-940 F727A/R812A limits assumed) above, with A507F, A592R, R595K counted along it
T4 sequence (Q9TTA5 221-940 D811H limits assumed): as the sequence (Q9TTA5 221-940 F727A/R812A limits assumed) above, with A507F, D591H, A592R counted along it
T3 sequence (Q9TTA5 221-940 R815H limits assumed): as the sequence (Q9TTA5 221-940 F727A/R812A limits assumed) above, with A507F, A592R, R595H counted along it

Compound: Nc1ncnc2c1ncn2[C@@H]1O[C@H](COP(=O)(O)OP(=O)(O)OP(=O)(O)O)[C@@H](O)[C@H]1O [ATP]
- Kd [1]: 1600 nM
- Kd [2]: 1000 nM
- Kd [3]: 1300 nM
- Kd [4]: 3.2 µM
- Kd [5]: 1600 nM
- Kd [6]: 2800 nM
- Kd [7]: 1900 nM
- Kd [8]: 1200 nM
- Kd [9]: 1600 nM
- Kd [10]: 1200 nM
- intrinsic tryptophan fluorescence titration (ex 295 nm, em 340 nm) [11]: Representative fluorescence spectra of ADAAD titrated with (A). ATP; (B) DNA.
- Kd [12]: 1000 nM
- Kd [13]: 1700 nM

— article PMC6019379, “RecA-like domain 2 of DNA-dependent ATPase A domain, a SWI2/SNF2 protein, mediates conformational integrity and ATP hydrolysis” (Bioscience Reports, 2018)
